Laboratory results reported in patent US12410358B2, “Organic acid-based enhanced waterflooding” (UNIVERSITY OF WYOMING, priority 2018, dated 2025).

Tests used:
[1] = Emulsion stability by TD-NMR droplet-size distribution; format: physicochemical; conditions: for Δd3 day 5 / Δσ day 5 / Δd3 day 14 / Δσ day 14: 1 mM acid in 1% Na2SO4, 1:1 with GB oil; for Δd3 day 5 / Δσ day 5: change days 1-5; for Δd3 day 14 / Δσ day 14: change days 1-14; for effect on emulsion stability compared to 1% Na2SO4 brine: 1 mM acid, day 14
Experimental: Dispersions were prepared in a 1:1 volume ratio with GB oil to each acid (1 mM) in the 1% Na2SO4 brine. The dispersions were emulsified via […] at 6500 rpm for 30 seconds in an Ultra Turrax T25 basic (IKA-Werke) homogenizer. The emulsions were then homogenized for 3 minutes at 6500 rpm to obtain homogeneous droplets for characterization.
Water-in-oil emulsions were prepared for each acid and the time evolution was tracked on a Bruker Biospin Minispec mq20 time domain nuclear magnetic resonance (TD-NMR). This instrument provides information about the polydispersity (σ) of the system and the diameter size (di). The variable i can represent either the diameter in terms of the number of droplets (1=0) or the diameter in terms of average volume of the droplets (1=3). The unimodal droplet size distribution for the created emulsions can be calculated according to Equation 2:
[formula] where qi is the log-normal distribution, d50,i is the geometric mean diameter. Bruker software is used for the NMR and that calculated the droplet size distribution. The change in diameter in relation to the volume is useful because it is indicative of coalescence.
This technique is advantageous as it is non-invasive and independent of the opacity of the dispersion. […] Droplet coalescence and emulsion stability was inferred by tracking the droplet-size distribution density over time.
The influence of the specific acids on coalescence was evaluated with restricted diffusion in a time-domain nuclear magnetic resonance (TD-NMR) system. […] Measurements were recorded within the first hour after emulsification, and every day for days 1-5, and then on days 7, 10, and 14. The TD-NMR system calculates a median diameter, which relates to the number of droplets present (d0) and the volume of the droplets present (d3). […] The Bruker system software also provides a standard deviation, σ, which is applicable for both diameter values and relates to the polydispersity of the droplets in solution.

[2] = Interfacial shear viscoelasticity, double-wall ring rheometer; format: physicochemical; conditions: for tan (δ) / Fractional G′ / Fractional G″: 1 mM acid in 1% Na2SO4 brine, 25° C.; for tan (δ): compared to the brine; for Fractional G′ / Fractional G″: compared to the brine viscoelastic moduli
Experimental: Rheological experiments were conducted with the GB oil and a low-salinity brine (1% Na2SO4) spiked with low concentration of organic acids using a TA Instruments AR-G2 Rheometer with a double-wall ring geometry. Measurement of the oil-water interface was performed using the rheometer, as the ring of the rheometer was placed directly on the denser phase, with the second phase added carefully at the end. The shear viscoelasticities were recorded at 25° C. Measurements were run in oscillatory time-sweep mode to measure the shear viscoelastic moduli, as the oscillatory time-sweep mode has high sensitivity to measure low frequency and torque values.
The stress response of the oil-water interface can be calculated utilizing Equation 1: σ(t)=γo[G′(ω)sin(ωt)+G″(ω)cos(ωt)] where σ represents the shear stress, t represents the time, γo is the amplitude of the strain, G′(ω) is the elastic or real modulus, and G″(ω) is the viscous or imaginary modulus. The elastic modulus is the instantaneous response to stress and the viscous modulus is the delayed response quantified by a phase angle. The tangent of this angle is represented by the following equation: […]
Experiments were run in the linear viscoelastic region, determined with a strain sweep test at fixed frequency on individual samples to determine appropriate values for each parameter in the following experiments.
The rheometer was cleaned with toluene and methanol and then air-dried; the Pt/Ir ring of the rheometer was flamed to remove residual contaminants and salts before each experiment. The rheometer was positioned on an air-table and was calibrated for geometry, inertia, and friction before each experiment was prepared. The brine was filtered through a 0.45 μm SFCA filter and examined for bubbles before the ring was lowered to sit at the interface. Next, the oil was added on top of the brine in a manner selected to avoid disruption of the interface formed. Without moving the table, the setup was covered and allowed to run for a minimum of five days. The viscoelasticity was measured several times during the first day and then routinely once a day for the remainder of the experiment duration. The temperature was controlled with the Peltier plate beneath the sample holder. When cleaning the rheometer at the end of the experiment, care was taken to recover as much aqueous phase as possible for NMR and pH measurements.
The interfacial viscoelasticity measurements were conducted on samples having a ratio of two parts aqueous phase to one part oil phase. […]

[3] = Oil bridge neck diameter / snap-off experiment; conditions: 1 mM acid in 1% Na2SO4, GB oil bridge; for delay of snap-off / bridge failure compared to low-salinity brine: 1 hour aging
Excerpt: A bridge technique was executed on a modified First Ten Angstroms (FTA) 1000 pendant drop instrument using two opposing vertical needles. The slenderness ratio (A) is defined as the length of the bridge (L) divided by the diameter of the needle (D). A large slenderness ratio is associated with an unstable bridge. The bridge goes through at least two processes. First the oil is bridged between the opposing needles, suspended in the brine and aged up to one hour. While the bridge is aging, the interfacial elasticity increases and the interfacial tension decreases. There are no disruptions or deformation of the system, and thus the surface stress is equal to the interfacial tension. After aging, the bridge goes under the second process during which the oil comprising the bridge is removed at 0.1 μL/s. This response is tracked until bridge failure. During this process, due to the increase in the elasticity of the interface, an extensional longitudinal and compressive circumferential surface stress contribute to the process. The behavior of the oil when the bridge breaks is indicative of the dominant environment of the oil-water interface—e.g., whether the environment is characteristic of an elastic break or an inelastic break. An enhanced elastic break, resulting from the formation of a thick interface, can appear as pointy interface and can show very little recovery of its initial shape, while a viscous break can reform the initial appearance of the oil before the formation of the bridge as shown in FIGS. 8A-8C. FIG. 8A is an image of the bridge initially before any aging or oil removal. FIG. 8B is an image showing the behavior observed in an inelastic break, and FIG. 8C is an image showing the behavior observed in an elastic break. Increased viscoelasticity suppresses interfacial snap-off and helps to sustain a more continuous oil phase. An elastic bridge is much less prone to break and therefore can pull more volumes of oil out (more production).
The behavior of the bridge is monitored with an APPRO camera at a frame rate of 60 frames per second and its geometry is tracked by measuring the neck diameter (ND). The neck diameter is the lowest radius along the vertical axis. The critical neck diameter (CND) is the value corresponding to the last frame of the connected bridge. The ratio of CND/ND is a stability proxy, and assumptions are made that a value close to zero indicates prevalent elastic forces.

[4] = Solubility of acids in brine; format: physicochemical; conditions: no pH adjustment
Experimental: A 1% Na2SO4 brine, equivalent to 2.24 mM (low salinity) and an ionic strength of 6.7 mM, was prepared and vacuumed for two hours before use. The brine was selected because it served as the baseline aqueous phase for the coreflooding experiments. Brine aliquots were then mixed with each of the 18 acid solutions at various concentrations and mixed into solution for several days. […] No adjustments were made to the brine to bring the acids into solution; at higher brine pH, larger naphthenic acids (NAs) solubilize more readily, while smaller ones can often dissolve at neutral pH. At higher pH, the potential for micelle and reverse micelle formation increases. However, embodiments described herein relate to acids that partition naturally, rather than those coaxed from the oil phase, so pH adjustments were not made in order to examine the influence of the acids in the system.
Additionally, the naphthenic acid mixture (NAmix1) was analyzed.

| SMILES | Δd3 day 5 [1] | Δσ day 5 [1] | Δd3 day 14 [1] | Δσ day 14 [1] | effect on emulsion stability compared to 1% Na2SO4 brine [1] | tan (δ) ([2]; GB oil) [%] | Fractional G′ ([2]; GB oil) | Fractional G″ ([2]; GB oil) [%] | aging time after which skin was observed [3] [h] | bridge break behaviour (elastic / inelastic) [3] | delay of snap-off / bridge failure compared to low-salinity brine [3] | aging time after which solid-like film (skin) was visible [3] | G′ value (elastic modulus) ([2]; 1 mM acid, day 5, GB oil) | G″ value (viscous modulus) ([2]; 1 mM acid, day 5, GB oil) | interface relative to un-acidified brine values ([2]; 10 mM acid, day 5, GB oil) [%] | concentration at which G′ and G″ plateau (acid believed to form aggregates) ([2]; GB oil, 1% Na2SO4 brine) | solubility in 1% Na2SO4 brine [4] |
| --- | --- | --- | --- | --- | --- | --- | --- | --- | --- | --- | --- | --- | --- | --- | --- | --- | --- |
| O=C(O)[C@@H]1CCCN1 [L-Proline, L-proline] | 1.045 | 0.1325 | 1.115 | 0.1722 | stabilize the emulsions | 114 | 53% | 47 |  |  |  |  |  |  |  |  |  |
| Cc1ccc(C(=O)O)cc1 [NA12, p-toluic acid] | 1.315 | 0.1998 | 1.6025 | 0.3463 | does not encourage coalescence | 189 | 25.8%^ | 48.8 |  |  |  |  |  |  |  |  |  |
| O=C(O)C1CCCC1 [NA14, cyclopentane carboxylic acid] | 1.3475 | 1.3475 | 1.4425 | 0.259 | stabilize the emulsions | 90.6 | 151% | 137 | ~12 | more elastic break | delays snap-off |  |  |  |  |  |  |
| O=C(O)C1CCCCC1 [NA18, cyclohexane carboxylic acid] | 1.5395 | 0.1263 | 1.572 | 0.2238 | stabilize the emulsions | 127 | 42% | 53.5 |  | asymmetric elastic skin | delayed bridge failure the longest | about 10 minutes | about 100 mPa | about 35 mPa | 21.2 | above 2.5 mM | especially soluble at higher concentrations |
